In assay [1] the target is T1, AKT2 (Homo sapiens, UniProt P31751).
T1 construct: expressed in transfected cells; host or cells: HEK293
Briefly: Live cell AKT2 target engagement by NanoBRET competitive probe displacement in HEK293 cells. The class given is binding. Conditions: 2 h at 37° C.

The target of assay [2] is T2, AKT1 WT (Homo sapiens, UniProt P31749).
T2 construct: expressed in transfected cells; host or cells: HEK293
Briefly: Live cell AKT1 WT target engagement by NanoBRET competitive probe displacement in HEK293 cells. The class given is binding. Conditions: 2 h at 37° C. (In general: BRET reads energy transfer from a luciferase to a nearby fluorophore.)

Setting [3] is: NanoBRET competitive probe displacement, live HEK293 cells, read-out: AKT2 IC50.
[4] abbreviates: NanoBRET competitive probe displacement, live HEK293 cells, read-out: AKT1 WT IC50.
The mark [5] stands for this setting: NanoBRET live cell target engagement, HEK293 cells, read-out: AKT2 IC50.
Where [6] appears, read: NanoBRET live cell target engagement, HEK293 cells, read-out: AKT1 WT IC50.

SMILES strings stand for the structures. Like-named read-outs stand apart in the source and are kept apart here. A value given as a limit tells only on which side of the number the result lay.

Here are results for 41 compounds from patent US12624034B2, “Non-covalent modifiers of AKT1 and uses thereof” (Terremoto Biosciences, Inc., priority 2023, dated 2026).

T2 sequence (P31749 whole entry): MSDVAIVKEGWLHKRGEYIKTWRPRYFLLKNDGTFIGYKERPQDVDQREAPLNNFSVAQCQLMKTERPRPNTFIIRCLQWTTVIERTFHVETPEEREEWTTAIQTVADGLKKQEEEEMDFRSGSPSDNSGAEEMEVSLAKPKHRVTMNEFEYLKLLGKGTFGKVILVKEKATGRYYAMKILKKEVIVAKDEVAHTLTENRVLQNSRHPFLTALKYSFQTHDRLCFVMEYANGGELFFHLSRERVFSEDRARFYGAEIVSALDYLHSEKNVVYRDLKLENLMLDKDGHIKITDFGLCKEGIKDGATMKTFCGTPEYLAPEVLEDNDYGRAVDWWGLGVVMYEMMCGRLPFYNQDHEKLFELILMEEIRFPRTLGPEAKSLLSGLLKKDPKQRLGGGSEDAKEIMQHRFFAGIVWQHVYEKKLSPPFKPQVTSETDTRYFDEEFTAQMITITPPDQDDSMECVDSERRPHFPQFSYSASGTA
T1 sequence (P31751 whole entry): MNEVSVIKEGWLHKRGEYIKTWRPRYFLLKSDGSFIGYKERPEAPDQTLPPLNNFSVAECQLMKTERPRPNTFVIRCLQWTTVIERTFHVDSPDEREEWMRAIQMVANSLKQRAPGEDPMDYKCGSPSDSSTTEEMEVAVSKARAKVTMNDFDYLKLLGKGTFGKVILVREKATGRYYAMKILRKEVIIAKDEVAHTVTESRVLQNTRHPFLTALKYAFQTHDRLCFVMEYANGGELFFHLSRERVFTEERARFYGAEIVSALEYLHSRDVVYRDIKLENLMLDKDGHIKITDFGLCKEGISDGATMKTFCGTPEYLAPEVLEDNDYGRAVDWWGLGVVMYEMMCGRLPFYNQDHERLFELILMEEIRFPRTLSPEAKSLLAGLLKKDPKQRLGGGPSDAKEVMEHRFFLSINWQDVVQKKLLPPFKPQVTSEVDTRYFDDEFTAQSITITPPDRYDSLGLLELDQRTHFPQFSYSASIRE

With `Nc1ncccc1-c1nc2ccc(-n3cccn3)nc2n1-c1ccc2c(c1)CC[C@@H]2NC1CC2(CCN(c3ccccn3)C2)C1` (stereo partly drawn) [Compound 447, N-[(1S)-5-[2-(2-aminopyridin-3-yl)-5-(pyrazol-1-yl)imidazo[4,5-b]pyridin-3-yl]-2,3-dihydro-1H-inden-1-yl]-6-(pyridin-2-yl)-6-azaspiro[3.4]octan-2-amine], the values for the IC50 in assay [1] (setting [3]) and in assay [2] (setting [4]) were 1490 nM and 78.5 nM, respectively.

In the case of `CN(C)Cc1ccc(C(=O)N[C@H]2CCc3cc(-n4c(-c5cccnc5N)nc5ccc(-n6cccn6)nc54)ccc32)cn1` [Compound 85], the results for the IC50 in assay [1] (setting [5]) and in assay [2] (setting [6]) were 169 nM and 36.3 nM, respectively.

For the compound `Nc1ncccc1-c1nc2ccc(-n3cccn3)nc2n1-c1ccc2c(c1)CC[C@@H]2NC(=O)c1cnc(C(F)F)cc1F` [Compound 97], the IC50 (as a rule, the concentration that inhibits the measured activity by half) in assay [1] (setting [5]) stood at 83.5 nM; in assay [2] (setting [6]) it was 21.9 nM.

Take `Cc1cnc(C)c(C(=O)N[C@H]2CCc3cc(-n4c(-c5cccnc5N)nc5ccc(-n6cccn6)nc54)ccc32)c1` [Compound 137]: the results for the IC50 in assay [1] (setting [5]) and in assay [2] (setting [6]) were 174 nM and 21.5 nM, respectively.

As for `COCCN(C)[C@H]1CCc2cc(-n3c(-c4cccnc4N)nc4ccc(-n5cccn5)nc43)ccc21` [Compound 457], the IC50 in assay [1] (setting [3]) worked out at 6740 nM; in assay [2] (setting [4]) it was 235 nM.

In the case of `COc1cc(C(=O)N[C@H]2CCc3cc(-n4c(-c5cccnc5N)nc5ccc(-n6cccn6)nc54)ccc32)ccc1F` [Compound 336], the IC50 in assay [1] (setting [5]) came out at 305 nM; in assay [2] (setting [6]), 17.7 nM.

For the compound `Nc1ncccc1-c1nc2ccc(-n3cccn3)nc2n1-c1ccc2c(c1)CC[C@@H]2NC(=O)[C@H]1CCO1` [Compound 372], the IC50 is > 10000 nM in assay [1] (setting [5]) and > 1000 nM in assay [2] (setting [6]).

With `Nc1ncccc1-c1nc2ccc(-n3cccn3)nc2n1-c1ccc2c(c1)CC[C@@H]2NC(=O)c1ccc2[nH][nH]c(=O)c2c1` [Compound 189], the IC50 was determined as 2850 nM in assay [1] (setting [5]) and 554 nM in assay [2] (setting [6]).

Regarding `Cc1ncccc1C(=O)N[C@@H]1c2ccc(-n3c(-c4cccnc4N)nc4ccc(-n5cccn5)nc43)cc2CC1F` (stereo partly shown) [Compound 147], the IC50 came out at 131 nM in assay [1] (setting [5]) and 19.6 nM in assay [2] (setting [6]).

In the case of `Nc1ncccc1-c1nc2ccc(-n3cccn3)nc2n1-c1ccc2c(c1)CC[C@@H]2NC(=O)c1cccn2ccnc12` [Compound 161], the IC50 in assay [1] (setting [5]) came out at 1910 nM; in assay [2] (setting [6]), 94.6 nM.

With `CC#Cc1ccc2nc(-c3cccnc3N)n(-c3ccc4c(c3)CC[C@@H]4NC(=O)c3ccc(C)nc3)c2n1` [Compound 265], the IC50 in assay [1] (setting [5]) was determined as 1870 nM; in assay [2] (setting [6]) it was 35.9 nM.

For `COc1cncc(C(=O)N[C@H]2CCc3cc(-n4c(-c5cccnc5N)nc5ccc(-n6cccn6)nc54)ccc32)n1` [Compound 348], the IC50 in assay [1] (setting [5]) was found to be 2600 nM; in assay [2] (setting [6]) it was 58.2 nM.

For `N[C@H]1CCc2cc(-n3c(-c4ccccc4F)nc4ccc(-n5cccn5)nc43)ccc21` [Compound 527], the IC50 in assay [1] (setting [3]) was determined as 1150 nM; in assay [2] (setting [4]), 19.5 nM.

With `Cc1cncc(C(=O)N[C@H]2CCc3cc(-n4c(-c5cccnc5N)nc5ccc(-n6cccn6)nc54)ccc32)n1` [Compound 186], the IC50 in assay [1] (setting [5]) stood at 3270 nM; in assay [2] (setting [6]) it was 76.3 nM.

Turning to `Nc1ncccc1-c1nc2ccc(-n3cccn3)nc2n1-c1ccc2c(c1)CC[C@@H]2n1cc(-c2ccccc2)nn1` [Compound 155, (S)-3-(3-(1-(4-phenyl-1H-1,2,3-triazol-1-yl)-2,3-dihydro-1H-inden-5-yl)-5-(1H-pyrazol-1-yl)-3H-imidazo[4,5-b]pyridin-2-yl)pyridin-2-amine], the IC50 stood at 197 nM in assay [1] (AKT2 IC50 (nM), NanoBRET live cell target engagement, HEK293 cells) and 16.5 nM in assay [2] (AKT1 WT IC50 (nM), NanoBRET live cell target engagement, HEK293 cells).

As for `Nc1ncccc1-c1nc2ccc(-n3cccn3)nc2n1-c1ccc2c(c1)CC[C@@H]2n1cnnc1-c1ccccc1` [Compound 178], the IC50 in assay [1] (setting [5]) stood at 3520 nM; in assay [2] (setting [6]), 88.2 nM.

As to `Nc1ncccc1-c1nc2ccc(-n3cccn3)nc2n1-c1ccc2c(c1)CC[C@@H]2NC(=O)c1cc(C(F)F)ns1` [Compound 452], the IC50 was 131 nM in assay [1] (setting [3]) and 6.63 nM in assay [2] (setting [4]).

As to `Cc1ncccc1C(=O)N[C@H]1CCc2cc(-n3c(-c4cccnc4N)nc4ccc(-n5nccn5)nc43)ccc21` [Compound 93], the IC50 in assay [1] (setting [5]) amounted to 1790 nM; in assay [2] (setting [6]), 38.8 nM.

Take `Cn1nc(C(=O)N[C@H]2CCc3cc(-n4c(-c5cccnc5N)nc5ccc(-n6cccn6)nc54)ccc32)cc1C(F)F` [Compound 266]: the IC50 was 468 nM in assay [1] (setting [5]) and 18.3 nM in assay [2] (setting [6]).

As for `COc1cc(-n2cccn2)nc2c1nc(-c1cccnc1N)n2-c1ccc2c(c1)CC[C@@H]2NC(=O)c1ccc(C(F)F)nc1` [Compound 122, (S)—N-(5-(2-(2-aminopyridin-3-yl)-7-methoxy-5-(1H-pyrazol-1-yl)-3H-imidazo[4,5-b]pyridin-3-yl)-2,3-dihydro-1H-inden-1-yl)-6-(difluoromethyl)nicotinamide], the figures for the IC50 in assay [1] (setting [5]) and in assay [2] (setting [6]) were 34.6 nM and 10.6 nM, respectively.

In the case of `Nc1ncccc1-c1nc2ccc(-n3nccn3)nc2n1-c1ccc2c(c1)CC[C@@H]2NC(=O)c1cnc(C(F)F)c(F)c1` [Compound 121], the 50% inhibitory concentration (IC50) in assay [1] (setting [5]) amounted to 1590 nM; in assay [2] (setting [6]) it was 36.6 nM.

For the compound `Cc1ccc(C(=O)N[C@H]2CCc3cc(-n4c(-c5cccnc5N)nc5ccc(-c6nc(C)cs6)nc54)ccc32)cn1` [Compound 300], the IC50 in assay [1] (setting [5]) was found to be 8.47 nM; in assay [2] (setting [6]) it was 3.32 nM.

As for `Cc1csc(-c2ccc3nc(-c4cccnc4N)n(-c4ccc5c(c4)CC[C@@H]5n4ccnn4)c3n2)n1` [Compound 316], the IC50 in assay [1] (setting [5]) came to 201 nM; in assay [2] (setting [6]), 16.9 nM.

As for `Nc1ncccc1-c1nc2ccc(-n3cccn3)nc2n1-c1ccc2c(c1)CC[C@@H]2NC1CCS(=O)(=O)CC1` [Compound 89], the results for the IC50 in assay [1] (setting [5]) and in assay [2] (setting [6]) were > 10000 nM and 459 nM, respectively.

On to `CN[C@H]1CCc2cc(-n3c(-c4cccnc4N)nc4ccc(-n5cccn5)nc43)ccc21` [Compound 339], for which the IC50 was 5170 nM in assay [1] (setting [5]) and 126 nM in assay [2] (setting [6]).

As to `Nc1ncccc1-c1nc2ccc(-n3cccn3)nc2n1-c1ccc2c(c1)CC[C@@H]2N1CCCCC1` [Compound 342, (S)-3-(3-(1-(piperidin-1-yl)-2,3-dihydro-1H-inden-5-yl)-5-(1H-pyrazol-1-yl)-3H-imidazo[4,5-b]pyridin-2-yl)pyridin-2-amine], the IC50 stood at 979 nM in assay [1] (setting [5]) and 43.9 nM in assay [2] (setting [6]).

For `Nc1ncccc1-c1nc2ccc(-n3cccn3)nc2n1-c1ccc2c(c1)CC[C@@H]2NC(=O)c1cc(F)cc(F)c1` [Compound 331], the half-maximal inhibitory concentration (IC50) in assay [1] (setting [5]) was 41.3 nM; in assay [2] (setting [6]) it was 19.1 nM.

`Cc1cnc(-c2ccc3nc(-c4cccnc4N)n(-c4ccc5c(c4)CC[C@@H]5n4ccnn4)c3n2)s1` [Compound 303]: the figures for the IC50 in assay [1] (setting [5]) and in assay [2] (setting [6]) were 1720 nM and 45.6 nM, respectively.

Turning to `Cc1ncccc1S(=O)(=O)N[C@H]1CCc2cc(-n3c(-c4cccnc4N)nc4ccc(-n5cccn5)nc43)ccc21` [Compound 139], the IC50 in assay [1] (setting [5]) was determined as 5850 nM; in assay [2] (setting [6]), 89.6 nM.

For `Nc1ccc(C(=O)N[C@H]2CCc3cc(-n4c(-c5cccnc5N)nc5ccc(-n6cccn6)nc54)ccc32)cn1` [Compound 311], the IC50 in assay [1] (setting [5]) came to 191 nM; in assay [2] (setting [6]), 19.1 nM.

For the compound `Nc1ncccc1-c1nc2ccc(-n3cccn3)nc2n1-c1ccc2c(c1)CC[C@@H]2NC(=O)c1cccnc1C#Cc1ccccc1` [Compound 210], the IC50 was 596 nM in assay [1] (setting [5]) and 95.8 nM in assay [2] (setting [6]).

As to `CNC(=O)c1ccc(C(=O)N[C@H]2CCc3cc(-n4c(-c5cccnc5N)nc5ccc(-n6cccn6)nc54)ccc32)cc1` [Compound 256], the 50% inhibitory concentration (IC50) came out at 73.8 nM in assay [1] (setting [5]) and 5.19 nM in assay [2] (setting [6]).

With `CN(C)Cc1cc(C(=O)N[C@H]2CCc3cc(-n4c(-c5cccnc5N)nc5ccc(-n6cccn6)nc54)ccc32)ccn1` [Compound 205], the IC50 in assay [1] (setting [5]) came to 2340 nM; in assay [2] (setting [6]), 168 nM.

As to `CC(=O)Nc1c(F)cc(C(=O)N[C@H]2CCc3cc(-n4c(-c5cccnc5N)nc5ccc(-n6cccn6)nc54)ccc32)cc1F` [Compound 294], the results for the IC50 in assay [1] (setting [5]) and in assay [2] (setting [6]) were 29.1 nM and 5.27 nM, respectively.

For `Nc1ncccc1-c1nc2ccc(-n3cccn3)nc2n1-c1ccc2c(c1)CC[C@@H]2NC1CCN(C(=O)[C@@H]2C[C@@H]2F)CC1` [Compound 477], the IC50 in assay [1] (setting [3]) is 4360 nM; in assay [2] (setting [4]) it was 170 nM.

For the compound `Nc1ncccc1-c1nc2ccc(-n3ccc(OC(F)F)n3)nc2n1-c1ccc2c(c1)CC[C@@H]2NC(=O)c1cnc(C(F)F)s1` [Compound 534], the values for the IC50 in assay [1] (setting [3]) and in assay [2] (setting [4]) were 507 nM and 38.9 nM, respectively.

For the compound `CN(C)Cc1ncccc1C(=O)N[C@H]1CCc2cc(-n3c(-c4cccnc4N)nc4ccc(-n5cccn5)nc43)ccc21` [Compound 104], the IC50 is > 10000 nM in assay [1] (setting [5]) and 317 nM in assay [2] (setting [6]).

On to `Nc1ncccc1-c1nc2ccc(-n3cccn3)nc2n1-c1ccc2c(c1)CC[C@@H]2NC(=O)c1cnc2cccn2c1` [Compound 291], for which the IC50 came to 56.5 nM in assay [1] (setting [5]) and 5.14 nM in assay [2] (setting [6]).

`Cc1ncc(C(=O)N[C@H]2CCc3cc(-n4c(-c5cccnc5N)nc5ccc(-n6cccn6)nc54)ccc32)cn1` [Compound 143]: the IC50 in assay [1] (setting [5]) was found to be 138 nM; in assay [2] (setting [6]), 24.9 nM.

For the compound `Cc1cnc(-c2ccc3nc(-c4cccnc4N)n(-c4ccc5c(c4)CC[C@@H]5NC(=O)c4nccnc4C)c3n2)s1` [Compound 243, (S)—N-(5-(2-(2-aminopyridin-3-yl)-5-(5-methylthiazol-2-yl)-3H-imidazo[4,5-b]pyridin-3-yl)-2,3-dihydro-1H-inden-1-yl)-3-methylpyrazine-2-carboxamide], the IC50 in assay [1] (setting [5]) was 8230 nM; in assay [2] (setting [6]) it was 75 nM.

As to `COc1cnn(-c2ccc3nc(-c4cccnc4N)n(-c4ccc5c(c4)CC[C@@H]5NC(=O)c4cnc(C(F)F)s4)c3n2)n1` [Compound 594], the IC50 in assay [1] (setting [3]) was determined as 2690 nM; in assay [2] (setting [4]), 27.6 nM.
